# According to US12680081B2, “Human induced pluripotent stem cell line transformed with fluorescent protein-labeled cytochrome P450 and AHR modulator screening method using same” (priority 2020, dated 2026):
# Structures can show the parent of a compound that is named as a salt.
# Columns and labels:
# AHR-CYP1A1 axis = test: High-content screening (HCS) of mCherry intensity in live CYP1A1-mCherry HLCs; details: for inhibition of the effect of TCDD on mCherry expression: human
# Protocol: 9. Chemical Treatment and High-Content Screening (HCS)
# To perform HCS, the cells differentiated for 10 days were dissociated, plated in a Matrigel®-coated 96-well plate, and cultured for maturation. […] DMSO was used as a vehicle control. For staining the live cell nucleus, cells were cultured with 2 μg/ml of Hoechst 33342 (Life Technologies) for 10 minutes. Stained cells were imaged using ImageXpress Micro XLS Widefield High-Content Analysis System (Molecular Devices, San Jose, Calif., USA). The acquired images were analyzed using MetaXpress High-Content Image Acquisition and Analysis Software (Molecular Devices) according to disclosed methods. For analysis, cells were first identified using Hoechst staining and mCherry intensity was detected to measure CYP1A1 expression.
# CYP1A1 = test: Ethoxyresorufin-O-deethylase (EROD) analysis of CYP1A1 activity in CYP1A1-mCherry HLCs; details: for inhibition of the effect of TCDD on CYP1A1 activity: FIG. 10d
# Protocol: Ethoxyresorufin-O-Deetylase (EROD) Analysis
# To measure the CYP1A1 activity, cells were cultured in a serum-free medium for 24 hours before treatment. The cells were treated with 7.5 μM ethoxyresorufin in the presence or absence of 10 μM dicumarol (inhibitor) in HBSS for 7.5, 15, 30 and 60 minutes, and 100 μl of the medium was removed into a new microcentrifuge tube. The same amount (100 μl) of ice-cold acetonitrile-methanol was added to the removed medium, followed by brief vortexing and centrifugation at 16,000×g for 5 minutes at 4° C. The supernatant was used for the following analysis. The level of the metabolite resorufin was measured by high-performance liquid chromatography (HPLC) with a Luna C18 column (4.6×150 mm, 5 μm; Phenomenex, Seoul, Korea). The moving phase was composed of 20 mM phosphate buffer-methanol-acetonitrile (52:45:3, v/v/v), and the flow rate was 0.8 ml/minute. Fluorescence was measured at an excitation wavelength of 560 nm and an emission wavelength of 585 nm. Concentrations were calculated using a standard curve for resorufin normalized by the total cellular protein content measured using a BCA protein analysis kit (Thermo Fisher Scientific).
# CYP1A1-mCherry HLC = test: Cell viability analysis (cell counting Kit-8); format: cell-based; details: working concentration 10 μM, 24 hours, FIG. 10b
# Protocol: 11. Cell Viability Analysis
# To analyze cell viability, target chemicals (10 μM) were treated for 24 hours prior to performing cell viability analysis. Then, 10 μl of cell counting Kit-8 was added to 100 μl of the medium, followed by incubation for 2 hours. Absorbance was measured at 450 nm using an iMark™ microplate absorbance reader (Bio-Rad). Cell viability was calculated using the following formula: Cell viability (%)=(Asample−Ablank)/(Acontrol−Ablank)×100
# CYP1A1 mRNA = test system: CYP1A1 mRNA
# Protocol: 8. Quantitative Reverse Transcription PCR (RT-qPCR)
# Total RNA was extracted from each sample using NucleoZOL reagent (Macherey-Nagel, Duren, Germany) and reverse transcription was performed using GoScript™ reverse transcription mix (Promega) according to the manufacturer's protocol. RT-qPCR was performed with SYBR Green Realtime PCR Master Mix (TOYOBO, Osaka, Japan) in StepOnePlus Real-Time PCR system (Applied Biosystems, Foster City, Calif., USA). PCR amplification was performed in triplicate for each sample. PCR results were expressed as relative fold change compared to the control cells after normalization with glyceraldehyde-3-phosphate dehydrogenase (GAPDH). The ΔCt (SΔCt) value was calculated as the difference between the Ct value obtained for GAPDH and the target gene. The ΔCt value of the control cells was used as the control ΔCt (CΔCt) value. The relative gene expression level was determined using the following formula: 2−(SΔCt−CΔCt).
# After preparing cells for RNA extraction, RT-qPCR analysis for the expression of CYP1A1 mRNA was performed according to the above procedure. Dose-response curves were created by the least squares fitting method using GraphPad Prism 5 (GraphPad, San Diego, Calif., USA).
# mouse AHR = target: T1, mouse AHR (Mus musculus, UniProt P30561); details: mouse AHR higher than human AHR; cited from earlier work
# T1 sequence (P30561 10-848): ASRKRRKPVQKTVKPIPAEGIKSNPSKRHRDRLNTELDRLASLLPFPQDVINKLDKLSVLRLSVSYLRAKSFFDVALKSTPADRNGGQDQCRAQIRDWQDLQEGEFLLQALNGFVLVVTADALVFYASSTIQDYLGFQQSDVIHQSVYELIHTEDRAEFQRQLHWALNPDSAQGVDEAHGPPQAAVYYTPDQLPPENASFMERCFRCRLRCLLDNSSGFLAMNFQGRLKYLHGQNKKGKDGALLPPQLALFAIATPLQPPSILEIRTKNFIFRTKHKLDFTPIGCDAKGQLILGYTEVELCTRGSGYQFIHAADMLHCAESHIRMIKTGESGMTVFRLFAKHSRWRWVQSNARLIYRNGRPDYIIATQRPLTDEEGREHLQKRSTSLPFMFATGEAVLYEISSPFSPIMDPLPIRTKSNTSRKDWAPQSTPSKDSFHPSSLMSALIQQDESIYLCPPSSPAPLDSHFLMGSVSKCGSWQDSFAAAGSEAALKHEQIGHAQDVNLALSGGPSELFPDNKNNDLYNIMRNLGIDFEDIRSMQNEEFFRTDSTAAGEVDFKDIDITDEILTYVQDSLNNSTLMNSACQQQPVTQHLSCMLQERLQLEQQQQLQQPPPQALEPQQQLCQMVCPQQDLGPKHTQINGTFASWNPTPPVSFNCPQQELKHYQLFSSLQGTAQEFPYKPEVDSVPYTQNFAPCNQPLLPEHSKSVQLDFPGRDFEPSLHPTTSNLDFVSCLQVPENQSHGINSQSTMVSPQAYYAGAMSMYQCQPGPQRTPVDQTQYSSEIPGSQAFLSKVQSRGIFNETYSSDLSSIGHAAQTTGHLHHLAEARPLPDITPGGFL
smiles,measurement,setting,value
"COc1ccc(/C=C/c2cc(OC)cc(=O)o2)cc1 [2-E05, yangonin]",mCherry intensity compared to CH223191 and TMF,AHR-CYP1A1 axis,significant decrease
same,inhibition of the effect of TCDD on mCherry expression,AHR-CYP1A1 axis,at the levels of the non-treated control and CH223191
same,inhibition of the effect of TCDD on CYP1A1 activity,CYP1A1,at the levels of the non-treated control and CH223191
same,cell death (cell viability),CYP1A1-mCherry HLC,without cell death
"COc1cc(/C=C/c2ccccc2)oc(=O)c1 [2-E06, desmethoxyyangonin]",mCherry intensity compared to CH223191 and TMF,AHR-CYP1A1 axis,significant decrease
same,inhibition of the effect of TCDD on mCherry expression,AHR-CYP1A1 axis,at the levels of the non-treated control and CH223191
same,inhibition of the effect of TCDD on CYP1A1 activity,CYP1A1,at the levels of the non-treated control and CH223191
same,cell death (cell viability),CYP1A1-mCherry HLC,without cell death
Cc1ccccc1N=Nc1ccc(NC(=O)c2ccnn2C)c(C)c1 [CH223191],transcript expression levels of CYP1A1 and mCherry,"CYP1A1 mRNA; co-treatment with BaP or TCDD, FIG. 7b",reduced
"Clc1cc2c(cc1Cl)Oc1cc(Cl)c(Cl)cc1O2 [TCDD, 2,3,7,8-tetrachlorodibenzo-p-dioxin]",mCherry intensity after treatment,"AHR-CYP1A1 axis; CYP1A1-mCherry HLC, AHR agonist treatment, FIG. 6a",time-dependent increase
same,affinity of mouse AHR with TCDD compared to human AHR,mouse AHR,10 fold
same,CYP1A1 activity,"CYP1A1; 60 minutes, FIG. 6b",increased
O=C(OCC(O)CO)c1ccccc1Nc1ccnc2cc(Cl)ccc12 (centres unmarked) [glafenine],concentration of maximal induction,CYP1A1 mRNA,maximal induction at the concentrations used for screening
same,"increase according to the dose (dose-response, CYP1A1 mRNA)",CYP1A1 mRNA; human,6- to 7 fold
CC(Cc1ccc(O)c(O)c1)C(C)Cc1ccc(O)c(O)c1 (centres unmarked) [nordihydroguaiaretic acid],"effect according to the dose (dose-response, CYP1A1 mRNA)","CYP1A1 mRNA; human, 24 h",~ 2 times
COc1ccc(Cc2nccc3cc(OC)c(OC)cc23)cc1OC [papaverine hydrochloride],concentration of maximal induction,CYP1A1 mRNA,maximal induction at the concentrations used for screening
same,"increase according to the dose (dose-response, CYP1A1 mRNA)",CYP1A1 mRNA; human,6- to 7 fold
